Here are results for 7 molecules from patent publication US20160096826A1, “CO-CRYSTALS OF LAPATINIB MONOACID SALTS” (priority 2014, published 2016).

Where a name gives a salt, the structure may show the parent alone. Read-outs that look alike come from different tables or passages of the source.

A short description of data set [1]: in vivo. The settings on record: male, Wistar, rat, male rats; for AUC(0-t): AUCt; for Cmax: suspension in hydroxypropylmethylcellulose:Tween 80 in WFI, plasma Lapatinib; for bioavailability: F (absolute bioavailability), oral 30 mg/kg AUCt compared with iv 10 mg/kg; for Vd/F: Vz/F; for MRT last: MRTt (mean residence time).
Procedure: (§1) For the oral administration, the compounds were suspended in hydroxypropylmethylcellulose:Tween 80 (0.5%:0.1%) in WFI to reach a concentration of 3 mg parent compound/mL in all cases.
(§2) A bioanalytical UPLC®-MS/MS method was characterized and allowed the determination of the Lapatinib in rat plasma; the precision and accuracy of the QC samples was appropriate according to international guidelines.
(§3) A non-compartmental pharmacokinetic analysis was carried out with mean plasma concentration-time curves using WinNonlin® Professional Version 6.3 (Phoenix Version 1.3, Pharsight Corporation):
(§4) For the preparation of the intravenous solution and the oral suspensions, the correction factor and the purity were applied for all compounds. Blood samples were collected from all animals at all scheduled time points.
(§5) The study samples were analyzed according to the following UPLC®-MS/MS method:
Data set [2] can be described thus: Model-based PK analysis (NONMEM), oral administration, two parallel input processes. The note with it: for AUC0INF / Absolute Bioavail. / Cmax / MRTINF / Tmax: derived from PK modelling, oral.
Source text: (§6) Therefore, the absorption process was described by two parallel inputs processes. The first input characterized a fast-release component (with a ka1 rate of absorption) while the second input characterized a delayed release of the drug (with a ka2 rate of absorption). The fraction of the oral dose associated with the first absorption component was estimated by the F parameter, while the remaining fraction of the drug (1-F) was assumed to be released in the second absorption process. The F fraction of the dose was immediately release (lag1) while the release of the remaining (1-F) fraction occurred with an estimated lag time (lag2).
(§7) The disposition and elimination PK parameters of Lapatinib (k12, k21, k13, k31, and kel) for the different oral formulations were fixed to the ones estimated in the IV model due to the limited PK samples available for a proper characterization of these parameters after oral administration.
The nature of data set [3]: Stability at 74% RH at 40° C. (XRPD).
Data set [4] is described as follows: Stability in water suspension followed by XRPD. It counts as physicochemical. The settings on record: 40 volumes of water, room temperature, XRPD at 1, 4 and 24 hours. The method, then:
The three suspensions were stirred at room temperature in 40 volumes of water and the transformation of the product was followed by XRPD at 1 hour, 4 hours and 24 hours.

The conditions of data set [5]: male rats; for Cmax: suspension in hydroxypropylmethylcellulose:Tween 80 in WFI, plasma Lapatinib.
Procedure: as §1, §2, §3, §4, §5
The nature of data set [6]: in vivo. The settings on record: Wistar, rat, plasma, po, 30 mg/kg.
Source text: as §6, §7
Data set [7] is described as follows: in vivo. The settings on record: Wistar, rat, plasma, iv, 10 mg/kg.
Data set [8] in a line: Model-based PK analysis (NONMEM), IV administration, three-compartment model. The settings on record: Group 1.
The conditions of data set [9]: Tyverb EPAR; cited from earlier work.
The nature of data set [10]: Intravenous bolus pharmacokinetics, non-compartmental analysis, 10 mg Lapatinib/kg. It counts as in vivo. The settings on record: Wistar, rat, plasma, male rats.
Procedure: as §3
Data set [11] can be described thus: pKa values for the FDA co-crystal criterion. The settings on record: approximated by comparison with Gefitinib and Erlotinib; read-out: pKa of the second less basic function. It counts as physicochemical. An excerpt:
As further confirmation that the products of the present inventions are co-crystals and not simply salts, the criterion adopted by the FDA Guidelines of April 2013 (see below) is here reported: the active ingredient-excipient complex should be classified as co-crystal if ΔpKa of the two species is <1.

For data set [12] the following is noted: cited from earlier work.
For data set [13] the following is noted: coformer acid; cited from earlier work.
Where [14] appears, read: plasma, po, 30 mg/kg, oral 30 mg/kg.
The mark [15] stands for this setting: listed as co-crystal Lapatinib monotosylate:caproic acid (1:2).
The mark [16] stands for this setting: listed as co-crystal Lapatinib monotosylate:caprylic acid (1:2).
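For Cmax/AUCt (apparent absorption rate) in this document: parent drug in plasma quantified by UPLC-MS/MS, parameters derived by non-compartmental analysis of mean concentration-time curves, oral suspension at 3 mg/mL.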
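For F (absolute bioavailability) in this document: parent drug in plasma quantified by UPLC-MS/MS, parameters derived by non-compartmental analysis of mean concentration-time curves, oral suspension at 3 mg/mL.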
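For F in this document: parent drug in plasma quantified by UPLC-MS/MS, parameters derived by non-compartmental analysis of mean concentration-time curves, oral suspension at 3 mg/mL.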
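For t1/2app (apparent terminal elimination half-life) in this document: parent drug in plasma quantified by UPLC-MS/MS, parameters derived by non-compartmental analysis of mean concentration-time curves, oral suspension at 3 mg/mL.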

What is called AUC(0-t) is the area under the concentration-time curve up to a stated or last time point. For orientation: CL/F means the apparent clearance, not corrected for the fraction that reaches the circulation. The Cmax is the maximum level reached in the sampled fluid or tissue. By bioavailability is commonly meant dose-corrected exposure relative to a reference, in per cent. A lower bioavailability goes with little systemic uptake. Broadly, the Vd/F is the volume of distribution divided by bioavailability. A word on the Tmax: it is the time from dosing to the highest level. In “in vivo [1]” (setting [14]), `CS(=O)(=O)CCNCc1ccc(-c2ccc3ncnc(Nc4ccc(OCc5cccc(F)c5)c(Cl)c4)c3c2)o1` [Form I, Lapatinib monotosylate:caproic acid (1:2)] gave an AUC(0-t) of 13300 ng·h/mL, a CL/F of 33.2 mL/min/kg, a Cmax of 3170 ng/mL and a Vd/F of 6.83 L/kg. This molecule returned a bioavailability in “in vivo [1]” (plasma, po, 30 mg/kg) of 32.4%. Further, in “in vivo [1]” (plasma, po, 30 mg/kg, tmax, oral 30 mg/kg), the Tmax turned out to be 2 h. Moreover, in data set [2] (setting [15]), the AUC0INF is 15000 ng·h/mL, the “Absolute Bioavail.” value amounted to 35.5%, the Cmax worked out at 3018.6 ng/mL and the MRTINF was 3.85 h. In [2] (setting [15]), the Tmax is on record as 1.6 h. In data set [3], the “exposure time after which very small amounts of Lapatinib monotosylate Form M1 were detected by XRPD” value is on record as 23 days and the “Lapatinib monotosylate observed in the co-crystal after 23 days” value is reported as “a little amount”.
Broadly, the MRT last is the average time that molecules of a dose stay in the body. As for `CS(=O)(=O)CCNCc1ccc(-c2ccc3ncnc(Nc4ccc(OCc5cccc(F)c5)c(Cl)c4)c3c2)o1` [Form II, Lapatinib monotosylate:caprylic acid (1:2)], in the data set “in vivo [1]” (in vivo, 30 mg Lapatinib/kg), the bioavailability turned out to be 50.7%. In “in vivo [1]” (in vivo, po, 30 mg/kg, oral 30 mg/kg), this molecule registered a mean residence time (MRT last) of 4.67 h. For the same molecule, in data set [4], the “stability in water suspension (XRPD finding)” value is given as “recovering pure Form II after 24 hours”. In data set [2] (setting [16]), the AUC0INF is 16700 ng·h/mL, the “Absolute Bioavail.” value amounted to 39.5%, the highest concentration (Cmax) was 2813.5 ng/mL and the MRTINF came to 4.67 h. Moreover, the Tmax in data set [2] (setting [16]) was determined as 3 h. For the same molecule, in [3], the “exposure time after which very small amounts of Lapatinib monotosylate Form M1 were detected by XRPD” value was found to be 60 days and the “Lapatinib monotosylate observed in the co-crystal after 23 days” value was “only traces”. In data set [5] (oral 30 mg/kg, 30 mg/kg), the Cmax stood at 2814 ng/mL, the AUCt was 20778 ng·h/mL and the Tmax was 3 h.
On to `CS(=O)(=O)CCNCc1ccc(-c2ccc3ncnc(Nc4ccc(OCc5cccc(F)c5)c(Cl)c4)c3c2)o1` [Form III, Lapatinib monohydrochloride:adipic acid (1:1)], for which the “F (absolute bioavailability)” value in data set [5] (oral 30 mg/kg AUCt compared with iv 10 mg/kg) came out at 44.98%. For the same molecule, in data set [5] (oral 30 mg/kg, 30 mg/kg), the Cmax is 2567 ng/mL, the AUCt came to 18433 ng·h/mL, the time of peak concentration (Tmax) was found to be 3 h and the “t1/2app (apparent terminal elimination half-life)” value amounted to 3.13 h.
One may read the half-life as the time needed for the level to fall by half in the phase considered. As a reminder, the AUC is the area under the concentration-time curve, a measure of exposure. As a reminder, the MRT inf is the average time that molecules of a dose stay in the body. Molecule `CS(=O)(=O)CCNCc1ccc(-c2ccc3ncnc(Nc4ccc(OCc5cccc(F)c5)c(Cl)c4)c3c2)o1.Cc1ccc(S(=O)(=O)O)cc1` [Lapatinib ditosylate monohydrate, N-{3-chloro-4-[(3-fluorobenzyl)oxy]phenyl}-6-[5-({[2-(methylsulphonyl)ethyl]amino}methyl)furan-2-yl]quinazolin-4-amine bis(4-methylbenzenesulphonate)monohydrate, reference compound] returned a bioavailability in “in vivo [1]” (plasma, oral, 30 mg Lapatinib/kg) of 57.5%. Also, in the data set “in vivo [1]” (setting [14]), the AUC(0-t) was 23600 ng·h/mL, the CL/F is 21.2 mL/min/kg, the Cmax was 3520 ng/mL and the MRT last is 4.28 h. Moreover, the Vd/F in the data set “in vivo [1]” (setting [14]) stood at 4.38 L/kg. Also, the half-life in the data set “in vivo [1]” (plasma, po, 30 mg/kg, t1/2app (apparent terminal elimination half-life), oral 30 mg/kg) is 2.39 h. In the data set “in vivo [6]”, the exposure (AUC) was 18400 ng·h/mL, the maximum concentration (Cmax) was determined as 3510 ng/mL, the MRT inf worked out at 4.31 h and the Tmax is 2 h. Moreover, in the data set “in vivo [7]”, the exposure (AUC) came out at 12300 ng·h/mL and the mean residence time MRT inf came to 35.9 h. In data set [8] (IV model), this molecule returned a k12 of 0.616, a k13 of 3.14, a k21 of 0.00202 and a k31 of 1.47. In data set [8] (IV model), this molecule displayed a kel of 1.6 and a v of 0.358. In [8] (derived from PK modelling, IV), this molecule displayed an AUC0INF of 14100 ng·h/mL and a T12 of 176 h. In addition, in data set [2], the AUC0INF stood at 18400 ng·h/mL and the “Absolute Bioavail.” value was found to be 43.5%. In data set [2] (oral model, first (immediate) release), this molecule returned a lag1 of 0. For the same molecule, in [9], the hygroscopicity result is given as “non-hygroscopic” and the “solubility in aqueous media” value is reported as “practically insoluble in aqueous media”. The C0 in data set [10] (iv bolus 10 mg/kg in DMSO:PEG:WFI (10:40:50), read-out: C0 (extrapolated concentration at time 0)) is 20200 ng/mL. In data set [10] (iv bolus 10 mg/kg), the area under the curve AUC(0-t) was 13700 ng·h/mL and the MRT last was found to be 1.54 h. Also, the “Cmax/AUCt (apparent absorption rate)” value in [5] (oral 30 mg/kg) came to 0.149 h⁻¹.
A word on the pKa: it is the pH at which an ionisable group is half protonated. Take `CS(=O)(=O)CCNCc1ccc(-c2ccc3ncnc(Nc4ccc(OCc5cccc(F)c5)c(Cl)c4)c3c2)o1` [Lapatinib]: the pKa in data set [11] is roughly 5.4. Moreover, the “increase of bioavailability when co-administered with a high fat meal” value in data set [12] (compared with fasting conditions, Ratain and Cohen) is on record as 325%. Besides, the “drug class (solubility/permeability)” value in data set [12] (low solubility-good permeability, Custodio et al.) is reported as “Class II”.
In the case of `CCCCCC(=O)O` [caproic acid], the pKa in data set [13] is recorded as 4.8.
On to `CCCCCCCC(=O)O` [caprylic acid], for which the pKa in [13] is 4.91.
